The series has as its system Plasmodium berghei (KBG-173 strain). In kind it is in vivo. The conditions noted are these: for # Mice Alive Day 30/Total / # Mice Dead/Day Died: oral. The method, then:
B. Antimalarial Activities: (a). In Vitro Antimalarial Studies. The in vitro assays were conducted by using a modification of the semiautomated microdilution technique of Desjardins et al and Chulay et al.. Four P. falciparum malaria parasite clones, from CDC Indochina III (W-2), CDC Sierra Leone I (D-6), Southeast Asia Isolates (TM91C235) and RCS (Isolates from Brazil) were utilized in susceptibility testing. They were derived by direct visualization and micromanipulation from patient isolates. The W-2 clone is susceptible to mefloquine but resistant to chloroquine, sulfadoxine, pyrimethamine, and quinine, whereas the D-6 clone is naturally resistant to mefloquine but susceptible to chloroquine, sulfadoxine, pyrimethamine and quinine. Test compounds were initially dissolved in DMSO and diluted 400 fold in RPMI 1640 culture medium supplemented with 25 mM Hepes, 32 mM NaHCO3 and 10% Albumax I (Gibco BRL, Grand Island, N.Y.). These solutions were subsequently serially diluted two-fold with a Biomek 1000 (Beckman, Fullerton, Calif.) over 11 different concentrations. The parasites were exposed to serial dilutions of each compound for 48 hrs and incubated at 37° C. with 5% O2, 5% CO2 and 90% N2 prior to the addition of [^3H]hypoxanthine. After a further incubation of 18 hrs, parasite DNA was harvested from each microtiter well using Packard Filtermate 196 Harvester (Meriden, Conn.) onto glass filters. Uptake of [^3H]hypoxanthine was measured with a Packard Topcount Scintillation. Concentration-response data were analyzed by a non-linear regression logistic dose response model and the IC50 values (50% inhibitory concentrations) for each compound were calculated. (Table 3). (b). In Vivo Antimalarial Studies against P. berghei in mice: The in vivo efficacy of the artelinic acid analogs were determined in a modified Thompson test. This test measures the survivability of mice and parasitemia clearance following administration of drug on days 3-5 post infection. In brief, 5×10^6 P. berghei-infected erythrocytes (KBG-173 strain) were inoculated intraperitoneally to female mice that weighed 24-30 g. By day three post-infection, parasitemia ranged from 1.0-3.7%. Each drug, dissolved in 5% sodium bicarbonate, was administered PO twice daily from day 3-5 post-infection. Total doses for each drug ranged from 1.5-384 mg/kg with 8 mice included in each dosage group. The percent suppression of parasitemia in the treated mice compared to the untreated controls was determined for each test compound; the SD-50 (fifty percent suppression dose) and SD-90 were determined from a non-linear regression logistic dose response fit at day 6 parasitemia data. Survival of mice to day 60 post-infection was considered a cure (C). Compounds were considered active (A) when the survival time of the treated mice was greater than twice the control mice, i.e., 12-14 day (Table 4-5). (c). Sporozoite Induced Test Each compound is ground with a mortar & pestle and suspended in 0.5% hydroxyethylcellulose—0.1% Tween 80 for compounds to be administered PO and those given SC are suspended in peanut oil. Each compound is prepared at 3 different dose levels as requested by WRAIR. Compounds are administered either PO or SC to mice once 4 hr before inoculation of sporozoites. Four-week-old male CD-1 mice, purchased from Charles River and weighing 16-17 g, are placed 5 per cage and allowed to acclimate for 4 days before being treated and then inoculated with sporozoites. They are fed food and water ad-lib and maintained at 76° F. with 12 hr light and 12 hr darkness. The cages and water bottles are changed biweekly. The mice are weighed on Days 0, 3 and 6 then biweekly when blood films are taken. Plasmodium yoelii (17×) is used to infect mice that will be used to infect the mosquitoes. Mice are given a single dose of test compound 4 hr before being inoculated intraperitoneally with 2.5×10^5 sporozoites of Plasmodium yoelii on Day 0. […]

Read-outs that look alike come from different tables or passages of the source.

`CCOC(=O)Nc1nc(NC(=O)OCC)c2c(ccc3c2ccn3Cc2ccccc2C(F)(F)F)n1` [Compound 2b]: where the note is “1.25 mg/kg/day”, the “# Mice Alive Day 30/Total” value is 3/5. Also, for the setting “80-2.5 mg/kg/day”, the “# Mice Alive Day 30/Total” value was 5/5 and the “# Mice Dead/Day Died” value is recorded as “None”.
With `CC(=O)N(C(C)=O)c1nc(N(C(C)=O)C(C)=O)c2c(ccc3c2ccn3Cc2ccccc2C(F)(F)F)n1` [Compound 3e, 1,3-Bis(diacetylamino)-7-(2-trifluoromethyl)benzyl-7H-pyrrolo[3,2-f]quinazoline], the “drug-related deaths in mice” value (in vivo) is given as “no drug-related deaths”. For the same compound, under “220-0.625 mg/kg/day”, the “# Mice Alive Day 30/Total” value is reported as 5/5 and the “# Mice Dead/Day Died” value is recorded as “None”.

The values are drawn from patent US7253177B2, “Synthesis and antimalarial activity of pyrrolo[3,2-f]quinazoline-1,3-diamine derivatives” (United States of America as Represented by the Secretary of …, priority 2004, dated 2007).
